USRE46943E1, “Radioprotector compounds and methods” (PETER MACCALLUM CANCER INSTITUTE, priority 2010, dated 2018)

Legend:
[1] = test system: transformed human keratinocyte cell line (FEP 1811); assay: Clonogenic survival cell culture assay for cytotoxicity; format: cell-based; conditions: Homo sapiens, Keratinocyte, light or radiation study; un-irradiated keratinocytes, one hour drug exposure, colonies counted after eight days; read-out: C50 (concentration of radioprotector that results in 50% clonogenic survival)
Procedure: • i. […] In appropriate cases, tautomers are drawn to illustrate potential hydrogen-bond donating configurations into the minor groove of DNA. • ii. 2-Amino-4-(5′-(4″-methylpiperazin-1″-yl)benzimidazol-2′-yl)aniline was prepared by hydrogenation of 4-(5′-(4″-methylpiperazin-1″-yl)benzimidazol-2′-yl)-2-nitroaniline, using a modification of the method of Kelly et al, Aust. […] 2-Amino-4-(5′-(piperidin-1″-yl)benzimidazol-2′-yl)aniline was prepared by hydrogenation of 2-nitro-4-(5′-(piperidin-1″-yl)benzimidazol-2′-yl)aniline, using a modification of the method of Kelly et al, Aust. […] Ethyl 4-amino-3-nitrobenzenecarboximidate hydrochloride was prepared by reaction of 4-amino-3-nitrobenzonitrile with dry HCl gas in ethanol, using the method of Kelly et al, Aust. […] 5-(4′-Methylpiperazin-1′-yl)-2-nitroaniline was prepared using a modification of the method of Kelly et al, Aust. […] The following chemicals were obtained from the chemical suppliers indicated: 2-furaldehyde (Aldrich), 2-pyridinecarboxaldehyde (Aldrich), 3-fluoropyridine-2-carbaldehyde (Maybridge), 3-trifluoromethylpyridine-2-carboxaldehyde (Apollo Scientific), 6-methyl-2-pyridinecarboxaldehyde (Matrix Scientific), 5-methylpyridine-2-carbonitrile (Apollo Scientific), 4-methyl-2-pyridinecarbonitrile (Aldrich), 4-chloro-2-pyridinecarbonitrile (Aldrich), 4-methoxypicolinonitrile (Combi-Blocks), pyrazinecarbonitrile (Aldrich), 2-quinolinecarbonitrile (Aldrich), 3-isoquinolinecarbonitrile (Aldrich), 1-isoquinolinecarboxylic acid (Aldrich), indazole-3-carboxylic acid (Aldrich), 2-hydroxynicotinic acid (Aldrich), 4-hydroxypiperidine (Aldrich), 1-methylhomopiperazine (Aldrich), 3-hydroxypiperidine (Aldrich), 4-(N-BOC-amino)piperidine (Aldrich), 4-methoxypiperidine (Acros), 4-methyl-3-nitrobenzonitrile (Aldrich), 5-chloro-2-nitroaniline (Aldrich), 2-cyanopyridine (Aldrich), methyl 4-amino-2-methoxybenzoic acid (Aldrich), 4-(trifluoromethyl)-2-pyridinecarbonitrile (Matrix Scientific), cis-2,6-dimethylmorphoiline (Acros), 5-(trifluoromethyl)-2-pyridinecarbonitrile (Advanced Chemical Intermediates) and 5-fluoro-2-pyridinecarbonitrile (Advanced Chemical Intermediates). • ix. […] Melting points were determined using an Electrothermal melting point apparatus, and are uncorrected. […] The abbreviations s for singlet, d for doublet, t for triplet, q for quartet, br for broad and m for muitiplet were used in the assignments of multiplicity. A value approximating the centre of a multiplet is quoted. […] The addition of a few drops of acetic acid to methanol-d4 solutions was used to enhance solubility for the acquisition of ^13C nmr spectra. Mass spectra were recorded on a Micromass Quattro II mass spectrometer and accurate mass analyses were carried out by the School of Chemistry at the University of Melbourne on a Finnigan LTQ-FT model high resolution mass spectrometer. Thin layer chromatography (TLC) was carried out using Merck silica gel 60 F254 aluminium sheets or Merck neutral aluminium oxide 150 F254 sheets. Flash column chromatography was carried out using Ajax silica gel 230-400 mesh. • xi. […] The details are described in detail in Martin et al (4) (the disclosure of which is included herein in its entirety by way of reference), but briefly, mid-log phase monolayer cultures are incubated with various concentrations of the test drugs for one hour, after which the monolayers are washed and dispersed into single cell suspensions using pronase, and finally appropriate numbers of cells are dispensed into Petri dishes. Colonies are counted after eight days incubation. […] The irradiation (with a dose rate of 0.6 Gy per minute) is started 30 minutes after addition of the test drug. After completion of irradiation, incubation of cultures is continued until the total time of exposure to the drug reaches 60 minutes. Cultures are then washed and plated for clonogenic survival as described for the cytotoxicity experiments.

[2] = test system: transformed human keratinocyte cell line (FEP 1811); assay: Clonogenic survival cell culture assay for radioprotective activity (12 Gy 137Cs gamma irradiation); format: cell-based; conditions: 12 Gy; for DMF10 (dose modification factor at a concentration of 10 microM of radioprotector): 10 microM radioprotector; for DMFm (dose modification factor at maximum protection): DMF=Dp/Dc at survival level Sm; for PF (protection factor = Sm/So): survival at maximum protection vs irradiation only
Excerpt: PF is defined as a ratio of survival at maximum protection Sm and survival after irradiation only So: PF=Sm/So. DMF is defined as a ratio of doses that result in survival level of Sm in the presence Dp and the absence Dc of radioprotector: DMF=Dp/Dc. DMF10 is define in a similar way except that instead of Sm a survival at 10 microM of radioprotector is used.
PF (Protection Factor) is defined as a ratio of survival at maximum protection Sm and survival after irradiation only So:PF=Sm/So. DMF (Dose Modification Factor) is defined as a ratio of doses that result in survival level of Sm in the presence (Dp) and the absence (Dc) of radioprotector: DMF=Dp/Dc. DMF10 is defined in a similar way except that instead of Sm a survival at 10 microM of radioprotector is used.
• i. […] In appropriate cases, tautomers are drawn to illustrate potential hydrogen-bond donating configurations into the minor groove of DNA. • ii. 2-Amino-4-(5′-(4″-methylpiperazin-1″-yl)benzimidazol-2′-yl)aniline was prepared by hydrogenation of 4-(5′-(4″-methylpiperazin-1″-yl)benzimidazol-2′-yl)-2-nitroaniline, using a modification of the method of Kelly et al, Aust. […] 2-Amino-4-(5′-(piperidin-1″-yl)benzimidazol-2′-yl)aniline was prepared by hydrogenation of 2-nitro-4-(5′-(piperidin-1″-yl)benzimidazol-2′-yl)aniline, using a modification of the method of Kelly et al, Aust. […] Ethyl 4-amino-3-nitrobenzenecarboximidate hydrochloride was prepared by reaction of 4-amino-3-nitrobenzonitrile with dry HCl gas in ethanol, using the method of Kelly et al, Aust. […] 5-(4′-Methylpiperazin-1′-yl)-2-nitroaniline was prepared using a modification of the method of Kelly et al, Aust. […] The following chemicals were obtained from the chemical suppliers indicated: 2-furaldehyde (Aldrich), 2-pyridinecarboxaldehyde (Aldrich), 3-fluoropyridine-2-carbaldehyde (Maybridge), 3-trifluoromethylpyridine-2-carboxaldehyde (Apollo Scientific), 6-methyl-2-pyridinecarboxaldehyde (Matrix Scientific), 5-methylpyridine-2-carbonitrile (Apollo Scientific), 4-methyl-2-pyridinecarbonitrile (Aldrich), 4-chloro-2-pyridinecarbonitrile (Aldrich), 4-methoxypicolinonitrile (Combi-Blocks), pyrazinecarbonitrile (Aldrich), 2-quinolinecarbonitrile (Aldrich), 3-isoquinolinecarbonitrile (Aldrich), 1-isoquinolinecarboxylic acid (Aldrich), indazole-3-carboxylic acid (Aldrich), 2-hydroxynicotinic acid (Aldrich), 4-hydroxypiperidine (Aldrich), 1-methylhomopiperazine (Aldrich), 3-hydroxypiperidine (Aldrich), 4-(N-BOC-amino)piperidine (Aldrich), 4-methoxypiperidine (Acros), 4-methyl-3-nitrobenzonitrile (Aldrich), 5-chloro-2-nitroaniline (Aldrich), 2-cyanopyridine (Aldrich), methyl 4-amino-2-methoxybenzoic acid (Aldrich), 4-(trifluoromethyl)-2-pyridinecarbonitrile (Matrix Scientific), cis-2,6-dimethylmorphoiline (Acros), 5-(trifluoromethyl)-2-pyridinecarbonitrile (Advanced Chemical Intermediates) and 5-fluoro-2-pyridinecarbonitrile (Advanced Chemical Intermediates). • ix. […] Melting points were determined using an Electrothermal melting point apparatus, and are uncorrected. […] The abbreviations s for singlet, d for doublet, t for triplet, q for quartet, br for broad and m for muitiplet were used in the assignments of multiplicity. A value approximating the centre of a multiplet is quoted. […] The addition of a few drops of acetic acid to methanol-d4 solutions was used to enhance solubility for the acquisition of ^13C nmr spectra. Mass spectra were recorded on a Micromass Quattro II mass spectrometer and accurate mass analyses were carried out by the School of Chemistry at the University of Melbourne on a Finnigan LTQ-FT model high resolution mass spectrometer. Thin layer chromatography (TLC) was carried out using Merck silica gel 60 F254 aluminium sheets or Merck neutral aluminium oxide 150 F254 sheets. Flash column chromatography was carried out using Ajax silica gel 230-400 mesh. • xi.

SMILES | IC50 [1] [µM] | DMF10 (dose modification factor at a concentration of 10 microM of radioprotector) [2] | DMFm (dose modification factor at maximum protection) [2] | PF (protection factor = Sm/So) [2] | melting point
CN1CCN(c2ccc3nc(-c4ccc5nc(-c6cc(N(C)C)ccn6)[nH]c5c4)[nH]c3c2)CC1 [Example 10, 4-Dimethylamino-2-(5′-(5″-(4′″-methylpiperazin-1′″-yl)benzimidazol-2″-yl)benzimidazol-2′-yl)pyridine] | 18.6 | 1.39 | 1.51 | 10.1 | 216 to 220 °C
COc1ccnc(-c2nc3ccc(-c4nc5ccc(N6CCN(C)CC6)cc5[nH]4)cc3[nH]2)c1 [Example 11, 4-Methoxy-2-(5′-(5″-(4′″-methylpiperazin-1′″-yl)benzimidazol-2″-yl)benzimidazol-2′-yl)pyridine] | 53.6 | 1.95 | 2.28 | 51.4 | 190 °C (dec.)
CN1CCN(c2ccc3nc(-c4ccc5nc(-c6cnccn6)[nH]c5c4)[nH]c3c2)CC1 [Example 12, 2-(5′-(5″-(4′″-Methylpiperazin-1′″-yl)benzimidazol-2″-yl)benzimidazol-2′-yl)pyrazine] | 54.2 | 1.15 | 1.29 | 6.5 | 175 °C (dec.)
CN1CCN(c2ccc3nc(-c4ccc5nc(-c6cc7ccccc7cn6)[nH]c5c4)[nH]c3c2)CC1 [Example 14, 3-(5′-(5″-(4′″-Methylpiperazin-1′″-yl)benzimidazol-2″-yl)benzimidazol-2′-yl)isoquinoline] | 26 | 2.34 | 2.45 | 25.1 | 224 to 229 °C
CN1CCN(c2ccc3nc(-c4ccc5nc(-c6nccc7ccccc67)[nH]c5c4)[nH]c3c2)CC1 [Example 15, 1-(5′-(5″-(4′″-Methylpiperazin-1′″-yl)benzimidazol-2″-yl)benzimidazol-2′-yl)isoquinoline] | 26.9 | 1.70 | 1.85 | 36.9 | 214 to 217 °C
CN1CCN(c2ccc3nc(-c4ccc5nc(-c6n[nH]c7ccccc67)[nH]c5c4)[nH]c3c2)CC1 [Example 16, 3-(5′-(5″-(4′″-Methylpiperazin-1′″-yl)benzimidazol-2″-yl)benzimidazol-2′-yl)indazole] | 40.9 | 1.78 | 2.16 | 18.3 | 235 °C (dec.)
CN1CCN(c2ccc3nc(-c4ccc5nc(-c6ccc[nH]c6=O)[nH]c5c4)[nH]c3c2)CC1 [Example 18, 3-(5′-(5″-(4′″-Methylpiperazin-1′″-yl)benzimidazol-2″-yl)benzimidazol-2′-yl)pyridin-2(1H)-one] | 66.8 | 1.00 | 1.01 | 1.1 | 244 to 248 °C
c1ccc2cc(-c3nc4ccc(-c5nc6ccc(N7CCOCC7)cc6[nH]5)cc4[nH]3)ncc2c1 [Example 20, 3-(5′-(5″-Morpholinobenzimidazol-2″-yl)benzimidazol-2′-yl)isoquinoline] | 172 | 1.52 | 1.57 | 11.4 | 202 °C (dec.)
Cc1ccnc(-c2nc3ccc(-c4nc5ccc(N6CCOCC6)cc5[nH]4)cc3[nH]2)c1 [Example 21, 2-(5′-(5″-Morpholinobenzimidazol-2″-yl)benzimidazol-2′-yl)-4-methylpyridine] | 213 | 1.47 | 1.77 | 18.2 | 214 to 230 °C
